The source of these data is patent publication US8741570B2, “Thermo-optical characterisation of nucleic acid molecules” (Ludwig-Maximilians-Universitat Munchen, priority 2008, dated 2014).

One series relates to bacteriophage lambda DNA. The series can be described thus: DNA hybridization thermophoresis of labelled probe with lambda DNA. The class given is binding. The protocol: Typical target molecules are longer than 20 bases and double stranded. For target molecules longer than 20 bases and double stranded, one has to expect a competing reaction between the labeled probe and the target DNA strands containing the same “probe-sequence”. […] The concentration change is determined in samples containing the pure DNA probe and in solutions containing the probe mixed with lambda DNA. We checked twice for the hybridization of probe DNA and lambda DNA. First after simply mixing of the molecules and second after an additional annealing procedure (94° C., 5 min and 72° C., 5 min) was carried out.
The experiment shown in FIG. 38 (b) is performed at a constant concentration of 40 nM probe DNA and 10 nM target DNA. All samples are preferably measured in a 100 μm-1 mm Capillary. The thermo-optical properties of the probe DNA have been determined in an independent experiment, followed by a mix of probe and target. […]
After an equilibration time of preferably 10 seconds a first capillary can be measured. […]
Step 1. […] (The thermo-optical properties (i.e. concentration change) of the free probe molecule is known from an independent experiment. Alternatively the thermo-optical behavior of a DNA molecule similar to the probe, but not complementary to a target molecule, is measured simultaneously in a multiplex approach (internal reference)).
Step 2. […] The immediately established local spatial temperature distribution causes the labeled primers and elongated primers (as well as internal reference standards) to drift to lower or higher temperatures, depending on the particular molecule to be analyzed and conditions like pH, salt concentration etc. […] The maximum temperature elevation is set below values which would harm the molecules to be analyzed or hinder their hybridization. […]
Step 3. During the laser heating an image of the fluorescence distribution is recorded (or multiple frames which may be averaged to a single image). Afterwards the infrared laser and the fluorescence excitation light source are turned off. […]

Series [1] in a line: Hydration entropy from literature. Format: physicochemical. The note with it: linear scaling with surface area using radius a=2 nm. The text has this: The intercept ST(λDH=0), where ionic contributions are zero, also scales with particle surface and is described by a hydration entropy per particle surface of shyd=−1400 J/(molKμm^2). The value matches the literature values for similar surfaces reasonably well^30,31. […] Linear scaling with its surface area by using a radius of a=2 nm results in a value of shyd=−2500 J/(molKμm^2), in qualitative agreement with our result. The hydration entropy is a highly informative molecule parameter which is notoriously difficult to measure, yielding an interesting application for thermodiffusion.

The conditions of series [2]: at a comparable temperature; cited from earlier work.
Series [3] is described as follows: Thermodiffusion (Soret coefficient) by microfluidic fluorescence imaging / single particle tracking. Format: physicochemical. The note with it: 50 μM dye in 10 mM TRIS buffer, concentration over time method.

{AF700} = Alexa Fluor 700 fluorescent dye

As to “5′-GATGAGTTCGTGTCCGTACAACTGG-3′ (DNA, 5' {AF700}, backbone and methylation of C not given here) [probe]”, the concentration change is −2% with bacteriophage lambda DNA (free probe, 40 nM); −3% in the series with bacteriophage lambda DNA (probe 40 nM mixed with 10 nM lambda DNA, without annealing procedure); −10% in the series with bacteriophage lambda DNA (probe 40 nM with 10 nM lambda DNA after denaturing (94° C., 5 min) and annealing (72° C., 5 min)).

`C[C@H](NS(=O)(=O)c1cccc2c(N(C)C)cccc12)C(=O)O` [Dansyl-Alanine]: the “hydration entropy per surface shyd” value in series [1] is −2500 J/(molKμm^2). Further, the hydration entropy in series [2] is reported as −0.13 J/(molK).

As to BCECF, the “Soret coefficient ST” value in series [3] is reported as 0.015 /K.
